From patent publication US20140329766A1, “Prophylactic Compositions for Management of Microbial Infections in Patients with Brain Injury” (UTI LIMITED PARTNERSHIP, priority 2011, published 2014)
“Also recorded” adds a separate entry of the source.

How the values were obtained:
post-stroke infections = experiment: Bacteriological analysis (CFU) of blood, lungs, liver and spleen after MCAO; type: in vivo, mice; details: post-ischemic mice 24 h after MCAO; α-GalCer 2 μg/mouse i.v. 2 h after MCAO (FIGS. 44A-44D)
Method: Mice underwent the mid-cerebral artery occlusion (MCAO) model of cerebral ischemia-reperfusion injury as previously described (Connolly, Jr. et al., 1996; Wong et al., 2008). Male mice of 8-12 weeks old were anesthetized by intraperitoneal injection of a mixture of 10 mg/kg xylazine hydrochloride (MTC Pharmaceuticals, Cambridge, ON) and 200 mg/kg ketamine hydrochloride (Rogar/STB, London, ON). Body temperature was maintained at 37° C. using a heating pad and temperature regulator with rectal probe. Mice were randomly divided into 2 groups: (i) sham-operated, and (ii) MCAO-operated. All surgical instruments were sterilized before the surgery. Before any incision, the area was swabbed with ethanol. To induce MCAO, a 10-mm incision was made on the right-hand side of the neck. Then, the common carotid artery, external carotid artery, and internal carotid artery were dissected free. The external carotid artery was further dissected distally, then coagulated and cut to serve as a stump. After applying temporary clamps at the common carotid artery and internal carotid artery, a monofilament with a silicon coating diameter of 0.21-0.23 mm (Doccol Corporation, Redlands, Calif., USA) was inserted into the stump of the external carotid artery. The monofilament then advanced a defined distance (12 mm) so that the distal end of the monofilament came to rest across the origin of the MCA. The stump of external carotid artery was tied off. The wound on the neck of the mouse was sutured and the mouse was then transferred onto a heat pad to maintain its body temperature at 37° C. After 30 mins of occlusion, the monofilament was withdrawn to allow reperfusion to occur. The animal then recovered from the anaesthesia. Rehydration of the mice was performed every 4 h with a subcutaneous injection of electrolytes and glucose. Food pellets softened with water were placed in the cage after surgery as the mice recovered, and access to water was provided. Sham-operated animals were subjected to the initial anaesthetic and neck incision only. The animals were then allowed to recover from anaesthetic. All animals were put onto a 37° C. heat pad, post-surgery, to recover from anaesthesia until euthanized.
(§1) The anaesthetized mice from Example 1 were washed with 70% ethanol under sterile conditions. Blood was collected by cardiac puncture. The lungs, liver and spleen were removed after thoracotomy and homogenized. For determination of colony forming units (CFU), 10 μl of tissue homogenate or blood was serially diluted, plated onto brain heart infusion (BHI) agar plates supplemented with 5% sheep blood (Daylnn Biologicals, Alberta, Canada), incubated at 37° C. for 18 h, and bacterial colonies were counted.
as §1, with “Example 7” for “Example 1”

[1] = Brain infarct size after MCAO; type: in vivo, mice; details: post-ischemic mice, single dose of α-GalCer (FIG. 45A)
tumors = details: cited from earlier work
hepatic iNKT cells = experiment: Spinning disk confocal intravital microscopy of the liver: crawling behaviour of GFP+ (iNKT) cells; type: in vivo, mice; details: Cxcr6gfp/+ mice without MCAO (FIGS. 31A, 31B)
Method: Murine liver intravital microscopy was performed as taught by Wong et al. (1997, A minimal role for selectins in the recruitment of leukocytes into the inflamed liver microvasculature. J. Clin. Invest. 99: 2782). Briefly, the tail vein of the anesthetized mice was cannulated to administer fluorescently labeled antibodies and/or additional anesthetic as required. Body temperature was maintained at 37° C. using an infrared heat lamp. Mice were placed in a right lateral position on an adjustable microscope stage. A lateral abdominal incision along the costal margin to the midaxillary line was made to exteriorize the liver, and all exposed tissues were moistened with saline-soaked gauze to prevent dehydration.
Cells were tracked using ImageJ software version 1.45 (NIH at http://rsb.info.nih.gov/ij/). Time-lapse videos exported from Volocity were imported as .mov file, and then converted to 8-bit grayscale. Fluorescent cells were adjusted using threshold control, and noise particles less than 2.0 pixels were removed by filter. Movement of cells was measured using manual tracking, and was calculated for each track using ImageJ output spreadsheets. The cell velocity was expressed in distance (μm) per time (min). 30-40 tracks from 10 mins videos of each animal in each experimental group were analyzed.
Excised livers were prepared for in vivo microscopic observation. Briefly, the liver was placed on the pedestal of an inverted microscope and the liver surface was then covered with a small piece of saline-soaked KimWipe to hold the organ in position. The liver microvasculature was visualized using a spinning-disk confocal microscopy and images were acquired with an Olympus IX81 inverted microscope using a ×10/0.40 UplanFL N objective. The microscope was equipped with a confocal light path (WaveFx, Quorum, Guelph, ON, CA) based on a modified Yokogawa CSU-10 head (Yokogawa Electric Corporation, Tokyo, Japan). Cxcr6^gfp/+ mice were used to visualize hepatic iNKT cells. Laser excitation wavelengths (Cobolt, Stockholm, Sweden) were used in rapid succession and visualized with the appropriate long-pass filters (Semrock, Rochester, N.Y.). Typical exposure time for each excitation wavelength was 300 milli-seconds. A 512×512 pixel back-thinned electron-multiplying charge-coupled device camera (C9100-13, Hamamatsu, Bridgewater, N.J.) was used for fluorescence detection. Volocity Acquisition software (Improvision) was used to drive the confocal microscope. […] Behaviors of iNKT cells in the hepatic microvasculature were assessed.
Wildtype mice underwent the MCAO procedure as previously described in Example 1. […] The crawling behaviours of crawling GFP+ cells in livers from sham-operated control mice and post-ischemic mice were observed and quantified using the methods disclosed in Example 2.

IFNγ = experiment: Serum cytokine IFNγ level in peripheral blood (Luminex); type: in vivo; details: post-ischemic mice 24 h after MCAO; α-GalCer 2 μg/mouse i.v. 2 h after MCAO (FIG. 43A)
Method: Levels of the cytokine IFNγ present in peripheral blood were determined by collecting blood samples by cardiac puncture, which were then allowed to clot at room temperature for at least 30 mins. The samples were then centrifuged at 400×g for 10 mins for the retrieval of serum. The serum samples were analyzed for the cytokine IFNγ by using a multiplex mouse cytokine/chemokine kit, and a Luminex 200 apparatus according to manufacturer's instructions. The data were analyzed with the StarStation V.2.3 software from Applied Cytometry Systems (UK).

CCCCCCCCCCCCCCCCCCCCCCCCCCC(=O)N[C@@H](COC1OC(CO)C(O)C(O)C1O)[C@H](O)[C@H](O)CCCCCCCCCCCCCC (stereo partly drawn) [α-GalCer, α-galactosylceramide]
infections (bacterial loads in peripheral blood, lungs, livers, spleens) (post-stroke infections): reduced; also recorded: suppressed the occurrence of microbial infections
infarct sizes [1]: no notable differences
growth of tumors (tumors; liver metastatic models): suppressed
survival term of the tumor-bearing mice (tumors; liver metastatic models): prolonged
anti-tumor activity (tumors; murine in vivo experiments incl. subcutaneous implanted model and liver and lung metastatic models): potent anti-tumor activity
crawling behaviour of liver iNKT cells after administration of the activator (hepatic iNKT cells): cessation of iNKTcells
systemic levels of endogenous IFN-γ (IFNγ): significantly increased
